Measurements published in patent publication US5288621A, “Pituitary TRH receptor” (Cornell Research Foundation, Inc., priority 1990, dated 1994).
Like-named read-outs stand apart in the source and are kept apart here.

Legend:
[1] = biological target: T1, TRH receptor (TRH-R) expressed in Xenopus oocytes (Mus musculus, UniProt P21761); assay: Competition for [3H]methylTRH binding to intact Xenopus oocytes injected with RNA transcribed in vitro from pBSmTRHR
T1 construct: injected with RNA transcribed in vitro from the plasmid containing the TRH-R cDNA (pBSmTRHR); expressed in transfected cells; host or cells: Xenopus laevis oocytes injected with in vitro transcribed RNA from pBSmTRHR
T1 sequence (P21761 1-393): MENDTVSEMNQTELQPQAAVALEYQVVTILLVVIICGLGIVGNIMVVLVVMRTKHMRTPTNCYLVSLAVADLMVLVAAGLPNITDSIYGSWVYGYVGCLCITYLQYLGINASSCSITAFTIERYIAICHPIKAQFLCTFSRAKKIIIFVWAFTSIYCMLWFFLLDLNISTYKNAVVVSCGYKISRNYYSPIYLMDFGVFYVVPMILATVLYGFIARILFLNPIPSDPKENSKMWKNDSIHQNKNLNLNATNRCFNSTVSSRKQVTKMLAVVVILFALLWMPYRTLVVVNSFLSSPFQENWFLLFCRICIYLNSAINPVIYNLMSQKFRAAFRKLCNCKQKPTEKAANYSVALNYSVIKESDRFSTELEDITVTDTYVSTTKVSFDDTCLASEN
Protocol: FIG. 2 depicts TRH (the filled squares) and chlordiazepoxide (the unfilled circles) competion for the binding of [^3 H]methylTRH to oocytes expressing TRH receptors 3 days after injection of 5 ng of in vitro transcribed RNA. The results are presented in this figure as mean ± S.E. of duplicate determinations.
Xenopus oocytes were injected with 5 ng of sense RNA transcripts ans assayed for specific binding of TRH and electrophysiological responses to TRH. Binding to intact oocytes was performed as described in the literature [see Molecular Endocrinology 3:9070 (1989)], using 2 nM [^3 H]methylTRH as the labeled ligand, and unlabeled TRH and chlordiazepoxide as competitive inhibitors.
Five to 10 oocytes were incubated at 4° C. in 0.2 ml OR-2 containing 40 nm [^3 H]methylTRH without or with 1 μl unlabeled TRH for up to 3 hours. Oocytes were washed 7 times with 4 ml ice-cold OR-2 solution and radioactivity measured by liquid scintillation counting. Specific binding was calculated by subtracting radioactivity bound in the presence from that in the absence of unlabeled TRH. Nonspecific binding was between 30 and 45% of total binding.

[2] = biological target: T2, TRH-R expressed in Xenopus oocytes (Mus musculus, UniProt P21761); assay: Electrophysiological response to TRH in voltage-clamped Xenopus oocytes injected with RNA transcribed from the TRH-R cDNA; type: cell-based; conditions: 3 days after injection of 5 ng RNA
T2 construct: injected with RNA transcribed in vitro from the plasmid containing the TRH-R cDNA (pBSmTRHR); expressed in transfected cells; host or cells: Xenopus laevis oocytes injected with in vitro transcribed RNA from pBSmTRHR
T2 sequence (P21761 1-393): T1 sequence (P21761 1-393)
Protocol: FIG. 3 more specifically depicts the concentration-response relationship of Xenopus oocytes 3 days following injection of 5 ng of in vitro transcribed RNA. In FIG. 3, the results are presented from two experiments with N≥6.
A single oocyte, in a 0.4 ml perfusion chamber, was impaled with two standard glass electrodes filed with 3M KCl and maintained under voltage clamp using a Dagan 8500 intracellular clamp. Drugs were included in the perfusate and applied at a flow rate of 8 ml/min. The apparent latency is the time between achieving greater than 80% of the perfusate concentration in the perfusion chamber (5.5 sec after switching to TRH) and the initial deflection of the pen on the chart recorder due to membrane depolarization.
RNA was injected (25-50 nl) at the equator of oocytes, and responses were tested 24 to 72 hours after injection.
This dose dependency is the same as that observed in GH3 cells when rapid effects of TRH, such as generation of inositol 1,4,5-triphosphate or elevation of cytoplasmic calcium, were measured [see J Biol Chem 261:2712 (1986) and J Biol Chem 259:5827 (1984)].

[3] = biological target: T3, TRH-R expressed in COS-1 cells (Mus musculus, UniProt P21761); assay: Competition for [3H]methylTRH binding in COS-1 cells transfected with pCDM8mTRHR; conditions: 48 hours, read-out: K3 (Ki) for displacement of [3H]methylTRH binding
T3 construct: the entire TRH-R cDNA, according to the present invention, contained in a Not I/HindIII fragment was cloned directly into the eukaryotic expression vector pCDM8; expressed in transfected cells; host or cells: COS-1 cells transfected with pCDM8mTRHR
T3 sequence (P21761 1-393): T1 sequence (P21761 1-393)
Protocol: In FIGS. 6 and 7, COS-1 cells were transfected with the TRH-R cDNA according to the present invention, in the mammalian expression vector pCDM8 (pCDM8m TRHR) and assayed for binding and responses 48 hours later. Specifically, FIG. 6, depicts the TRH (filled squares) and chlordiazepoxide (unfilled circles) competition for the binding of [^3 H]methylTRH. COS-1 cells transfected with pCDM8mTRHR were assayed for the binding of [^3 H]methylTRH in the presence of increasing amounts of either unlabeled TRH or chlordiazepoxide. Results are presented as mean ± range of data from duplicate determinations in one of two similar experiments. In FIG. 7, COS-1 cells transfected with pCDM8mTRHR were labeled with myo-[^3 H]inositol for 48 hours, washed, and tested for dose-dependent stimulation of inositol phosphate production by TRH. The results are presented as mean ± S.D. of triplicate determinations from one of two similar experiments. […]
No specific binding or TRH stimulated inositol phosphate formation was detectable in untransfected COS-1 cells or cells transfected with pCDM8 alone. As depicted in FIG. 6, [^3 H]methylTRH binding and displacement by TRH and chlordiazepoxide were measured. […]

[4] = biological target: T3, TRH-R expressed in COS-1 cells; assay: TRH-stimulated inositol phosphate formation in COS-1 cells transfected with pCDM8mTRHR; type: cell-based; conditions: labeled with myo-[3H]inositol 48 hours
Protocol: In FIGS. 6 and 7, COS-1 cells were transfected with the TRH-R cDNA according to the present invention, in the mammalian expression vector pCDM8 (pCDM8m TRHR) and assayed for binding and responses 48 hours later. […] In FIG. 7, COS-1 cells transfected with pCDM8mTRHR were labeled with myo-[^3 H]inositol for 48 hours, washed, and tested for dose-dependent stimulation of inositol phosphate production by TRH. The results are presented as mean ± S.D. of triplicate determinations from one of two similar experiments.
COS-1 cells were transfected using the DEAE dextran method, and after 48 to 72 hours the cells were assayed for [^3 H]methylTRH binding and TRH stimulated inositol phosphate formation.
On the day prior to transfection, 35 mm, 6 well tissue culture plates were seeded with 6×10^5 in DMEM with 10% FCS; cells should be just subconfluent for transfection. A transfection cocktail was prepared: supercoiled plasmid DNA (ethanol precipitated if necessary) was resuspended in 0.3 ml PBS, and then vortexed. 0.1 ml DEAE-dextran was added to bring the final concentration to 0.5 mg/ml, and the solution mixed thoroughly. The tissue culture medium was aspirated from the cell cultures and the COS cells were rinsed twice with 2 ml of PBS warmed to 37° C. […]

pituitary TRH-R = conditions: Neuroendocrinology 32:310 (1981); cited from earlier work

| Molecule | Ki [1] [nM] | lowest TRH concentration that evoked an electrophysiological response [2] [nM] | EC50 ([2]; read-out: TRH concentration giving half-maximal electrophysiological response) [nM] | EC100 ([2]; read-out: TRH concentration giving maximum electrophysiological response) [µM] | Ki [3] [nM] | EC50 [4] [nM] | Ki ([1]; Xenopus oocytes, 3 days after injection of 5 ng in vitro transcribed RNA, calculated, approximate, read-out: apparent inhibition constant (Ki) for inhibition of [3H]methylTRH binding) [nM] | affinity relative to TRH for the pituitary TRH-R (higher) (pituitary TRH-R) [fold] |
| --- | --- | --- | --- | --- | --- | --- | --- | --- |
| NC(=O)[C@@H]1CCCN1C(=O)[C@H](Cc1cnc[nH]1)NC(=O)[C@@H]1CCC(=O)N1 [TRH, thyrotropin releasing hormone] | ~30 | 1 | 10 | 0.1 | 10 | ~10 | – | – |
| CNC1=Nc2ccc(Cl)cc2C(c2ccccc2)=[N+]([O-])C1 [chlordiazepoxide] | – | – | – | – | 20000 | – | ~3000 | – |
| [^3 H]methylTRH | – | – | – | – | – | – | – | 10 |
